We go through one molecule from publication PMC12266748, “A Xanthine Derivative With Novel Heat Shock Protein 90‐Alpha Inhibitory and Senolytic Properties” (Aging Cell, 2025).

Series [1] deals with p16-3MR mice. Nature of the series: Pilot study in aged p16-3MR mice (safety, bioluminescence, ear biopsy markers, cytokines). Type of series: in vivo. The procedure:
(§1) Sections were prepared from organs and ear biopsies from snap‐frozen tissues and mounted on SuperFrost Plus slides (VWR). SA‐β‐gal staining was performed according to the manufacturer's instructions for the Sigma‐Aldrich‐QIA117 staining kit (Sigma‐Aldrich). Nuclei were counterstained with Nuclear Fast Red (Sigma‐Aldrich), and images were acquired using a Zeiss AxioCam HRc mounted on a Leitz Laborlux S light microscope. The percentage of senescent cells was determined with QuPath v. 0.3.2 (Bankhead et al. [2017]).
(§2) All experiments were performed per the European Community Council Directives of 2010/63/UE. The pilot study (PS) investigated safety and potential senolytic efficacy, and the Extended study (ES) investigated functional changes, pathological phenotype, and the principal organ targeted by K5. Protocols were approved according to current Italian law (D.Lgs. n. 26/2014) by OPBA (animal care and health committee) of IRCCS INRCA and by the General Direction of Animal Health and Veterinary Drugs of the Italian Ministry of Health with authorization n°‐137/2021‐PR for PS and authorization n°‐370/2022‐PR for ES. In the PS of p16‐3MR mice (26 months), bioluminescence associated with p16‐expression was monitored before and after treatment, and the health of the mice was longitudinally studied. The ES used geriatric C57BL/6J mice (31 months). Clinical health and physical performance were analyzed before and after K5 treatment. Subsequently, the animals were euthanized, gross necropsies were performed, and organs were collected for further analysis. Detailed protocols are reported in the extended section.
(§3) Blood samples were collected from the right retroorbital plexus. Glucose (GLUC), creatinine (CREA), aspartate aminotransferase (AST/GOT), and alanine aminotransferase (ALT/GPT) were determined in EDTA‐plasma by using an automated analyzer (Cobas Mira, Roche) according to the manufacturer's instructions. Cytokines were measured in EDTA‐plasma using the ProcartaPlex Mouse Cytokine & Chemokine Panel 1, 26plex (Thermofisher) and read in the Luminex 200 instrument (Bio‐Rad), following the producer's recommendation.
Total RNA was extracted from ear biopsies using the RNeasy kit (Qiagen) according to the manufacturer's instructions and quantified by NanoDrop. β‐actin, p‐21, and p‐53 gene expression levels were analyzed on a BioRad iQ5 optical RT‐PCR (BioRad).
Experimental animals' bioluminescence imaging (BLI) was performed with an IVIS Spectrum system (PerkinElmer). Mice were intraperitoneally injected with Xenolight RediJect Coelenterazine h (PerkinElmer), and bioluminescent images were obtained with mice in the dorsal and ventral positions; the Living Image software quantified bioluminescence acquired by the CCD camera.
. To explore the safety of K5 and its potential impact on the aging process, p16-3MR mice were longitudinally studied in this pilot experiment. They were monitored once a month until natural death using a non-invasive protocol designed to assess their clinical health and physical performance across various functional domains associated with frailty. Additionally, to provide an initial overview of K5 effects on senescent cells, non-invasive and exploratory analyses (senescence markers in ear biopsies, p16 expression measured by in vivo bioluminescence assay, and circulating cytokine profile) were performed before the start of the treatment (T0) and after 20 days following the end of K5 administration (T1).
Circulating cytokines assay. Blood samples were collected from the right retroorbital plexus of anesthetized mice. Blood samples were deposited in serum separator gel tubes (Microvette CB300, Sarstedt) and centrifuged (1000 × g, 10 min) for serum separation. Concentrations of glucose (GLUC), creatinine (CREA), aspartate aminotransferase (AST/GOT), and alanine aminotransferase (ALT/GPT) were determined in EDTA-plasma by using an automated analyzer (Cobas Mira, Roche) according to the manufacturer's instructions. […]

Series [2] concerns C57BL/6J mice. Nature of the series: Extended study in geriatric C57BL/6J mice (biochemistry, function, necropsy, cytokines, SA-β-gal in organs). Type of series: in vivo, mouse. The procedure:
as §1, §2, §3
We measured the clinical frailty index (CFI), Clinical Health Score (CHS), Physical Function Score (PFS), and Vitality Score (VS) in mice, as previously described (Marcozzi et al. [2023]). All frailty measurements were performed in a dedicated INRCA SPF animal facility area. The CFI score for each mouse was calculated as previously published (Whitehead et al. [2014]). The VS was obtained by calculating the arithmetic mean of the individual values of CHS and PFS. Several tests were assessed for endurance and speed Scores; details are reported in the extended methods.
For aged tissues: 10 μm-thick tissue sections were prepared from nine organs (liver, heart, lung, kidney, quadriceps, gastrocnemius, brain cortex, cerebellum, and hippocampus) and ear biopsies with a cryostat from snap-frozen tissues and mounted on SuperFrost Plus slides (VWR, Radnor, PA, USA). SA-β-gal staining was performed according to the manufacturer's instructions of the Sigma-Aldrich-QIA117 staining kit (Sigma-Aldrich, St. Louis, MO, USA). Nuclei were counterstained with Nuclear Fast Red (NFR) (Sigma-Aldrich, St. Louis, MO, USA), and images (from […] sections) were acquired using a Zeiss AxioCam HRc mounted on a Leitz Laborlux S light microscope. The percentage of senescent cells was determined as the mean of 3–4 images from each tissue section by counting the total and SA-β-gal-positive cells with the positive cell detection tool available in the open-source software for digital image analysis, QuPath v. 0.3.2 (Bankhead et al. 2017).
In the extended study, more geriatric C57BL/6J mice were used to confirm safety and investigate the main organs targeted by K5 (Fig. S5). For this purpose, 26 geriatric mice (14 males, 12 females, aged 31 months) and 24 geriatric mice (13 males, 11 females, and 31 months) were treated with K5 and the Vehicle. […]

The mark [3] stands for this setting: geriatric C57BL/6J mice, vs control.

Take `Cc1ccccc1-n1c(=O)n(Cc2ccccc2)c(=O)c2[nH]cnc21` [Compound K5, 1-benzyl-3-(2-methylphenyl)-7H-purine-2,6-dione]: in series [1] (10 mg/kg i.p., p16-3MR mice), the “median lifespan of treated animals, females” value is reported as 953 ± 35 days and the “median lifespan of treated animals, males” value is 1097 ± 78 days. The “adverse reactions, behavioral stereotypes, mortality after administration” value in series [1] (10 mg/kg i.p., three injections over three consecutive days) is recorded as “did not induce any adverse reactions”. Also, the “SA-β-gal activity in ear biopsies” value in series [1] (T1, 10 mg/kg i.p.) was “reduction”. For the same molecule, in series [1] (T1 vs T0, 10 mg/kg i.p.), the “circulating IL-1β” value is “trend (p < 0.01) toward decreased”; the “circulating IL-6” value was “reduction”; the “p16 expression by in vivo bioluminescence, ventral and dorsal signals” value is reported as “significant reduction”; the “p21 mRNA expression in ear biopsies” value is given as “decreasing trend”. In addition, in series [1] (T1 vs T0, 10 mg/kg i.p.), the “p53 mRNA expression in ear biopsies” value is “reduction in p53 expression at T1 was statistically significant”. Also, the body weight result in series [2] (geriatric C57BL/6J mice, throughout the treatment period) is given as “remained stable”. Moreover, the “plasma levels of glucose, creatinine, GOT, and GPT, treated vs control” value in series [2] (geriatric C57BL/6J mice, two rounds of three injections) is reported as “no significant differences”. In addition, in series [2] (setting [3]), the “SA-β-gal staining in the liver” value is reported as “significantly reduced staining” and the “SA-β-gal staining in the pancreas” value was “significantly reduced staining”. In addition, the “circulating IL-1β” value in series [2] (geriatric C57BL/6J mice, vs controls) is “significant reduction”. Also, in series [2] (treated male mice), the “Physical Function Score vs control” value is given as “significant increase”, the “Vitality Score vs control” value was “significant increase” and the “tumor incidence at gross necropsy” value is listed as “lower incidence of tumors”.
